These are literature values, as cited in patent US9334250B2, “Multifunctional radical quenchers for the treatment of mitochondrial dysfunction” (Arizona Board of Regents, A Body Corporate of the State of …, priority 2012, dated 2016).

The conditions of the data set: James et al. (2005) J Biol. Chem. 280, 21295-21312.

The structures appear in SMILES notation.

For `COC1=C(OC)C(=O)C(C/C=C(\C)CC/C=C(\C)CC/C=C(\C)CC/C=C(\C)CC/C=C(\C)CC/C=C(\C)CC/C=C(\C)CC/C=C(\C)CC/C=C(\C)CCC=C(C)C)=C(C)C1=O` [coenzyme Q10], the calculated octanol-water partition coefficient was more than 1e+20.
